Data as given in PMC12652692, “Synthesis and In Vitro Anticancer Evaluation of Novel Phosphonium Derivatives of Chrysin” (International Journal of Molecular Sciences, 2025).

How the values were obtained:
Assay type in all cases: cell-based
RXF 393 = test: NCI60 five-dose screen; conditions: Homo sapiens; RXF 393, Renal Cancer
Procedure: (§1) Since all new conjugates (3a–h) had notable antiproliferative activities on several tumor cell lines in the course of the one-dose screening, they were subjected to a five-dose test. […] J. Mol. Sci. 2025, 26, 11063 10 of 10 S.3. NCI60 Screening A detailed description of the NCI screening procedures can also be found on the website of NCI [39], and in our previous work. S.3.1. One-Dose Screen All candidates were examined at first at a single high dose (10 μM) in the full NCI60 cell panel. The value reported for the one-dose test is growth relative to the no-drug control and relative to the time zero number of cells. This made possible the disclosure of both growth inhibition (numbers between 0 and 100) and lethality (numbers less than 0). For example, a value of 100 means no growth inhibition. A value of 20 would mean 80% growth inhibition. A value of 0 means no net growth over the course of the analysis. A value of −20 would mean 20% lethality. A value of −100 means all cells are dead. S.3.2. […] The human tumor cell lines of the cancer screening panel were grown in RPMI 1640 medium containing 5% fetal bovine serum and 2 mM l-glutamine. Characteristically, cells were injected in 96-well microtiter plates in 0.1 mL at plating densities ranging from 5000 to 40,000 cells/well, depending on the doubling time of individual cell lines. After cell inoculation, the microtiter plates were incubated at 37 °C, 5% carbon dioxide, 95% air, and 100% relative humidity for 24 hours before the addition of tested compounds. After 24 hours, 2 plates of each cell line were fixed in situ with Cl3COOH (TCA), to represent a measurement of the cell population for each cell line at the time of drug addition (tz). Tested compounds were solubilized in DMSO at 400-fold the desired final maximum test concentration and stored frozen before application. In the course of the drug addition, an aliquot of frozen concentrate was thawed and diluted to twice the desired final maximum test concentration with a complete medium containing 50 μg mL−1 gentamicin. Additional four, 10-fold or ½ log serial dilutions were produced to furnish a total of five drug concentrations plus control. Aliquots of 0.1 mL of these different drug dilutions were added to the appropriate microtiter wells already containing 0.1 mL of medium, resulting in the required final drug concentrations. Following drug addition, the plates were incubated at 37 °C, 5% carbon dioxide, 95% air, and 100% relative humidity for an additional 48 hours. For adherent cells, the test was finished by the addition of cold Cl3COOH. Cells were fixed in situ by the addition of 50 μL of cold 50% (w/v) Cl3COOH, and incubated at 4 °C for 1 hour. The supernatant was discarded, and the plates were washed with H2O (5×) and dried in air. Sulforhodamine B (SRB) solution (0.1 mL) at 0.4% (w/v) in 1% CH3COOH was added to each well, and plates were incubated at RT for 10 min. After staining, the unbound dye was removed by washing five times with 1% CH3COOH, and the plates were dried in the air. The bound stain is afterward solubilized with a 10 mM trizma base, and the absorbance is read on an automated plate reader at λ = 515 nm. Utilizing the seven absorbance measurements [time zero (tz), control growth (c), and test growth in the presence of the drug at the five concentration levels (ti)], the percentage growth was determined at each of the drug concentration levels. Growth inhibition (%) was calculated as: [(ti − tz)/(c − tz)] × 100, for concentrations where ti ≥ tz (1) [(ti − tz)/(tz)] × 100, for concentrations where ti < tz. (2) Three dose‒response parameters were calculated as follows. GI50 (growth inhibition of 50%) was determined from Equation (3), which is the drug concentration resulting in a 50% reduction in the net protein increase (as measured by SRB staining) in control cells in the course of the drug incubation. [(ti − tz)/(c − tz)] × 100 = 50 (3)

HOP-92 = test: NCI60 five-dose screen; conditions: Homo sapiens; HOP-92, Non-small-Cell Lung Cancer
Procedure: as §1

SF-268 = test: NCI60 five-dose screen; conditions: Homo sapiens; SF-268, CNS Cancer
Procedure: as §1

OVCAR-4 = test: NCI60 five-dose screen; conditions: Homo sapiens; OVCAR-4, Ovarian Cancer
Procedure: as §1

NCI-H226 = test: NCI60 five-dose screen; conditions: Homo sapiens; NCI-H226, Non-small-Cell Lung Cancer
Procedure: as §1

SF-539 = test: NCI60 five-dose screen; conditions: Homo sapiens; SF-539, CNS Cancer
Procedure: as §1

IGROV1 = test: NCI60 five-dose screen; conditions: Homo sapiens, IGROV-1; IGROV1, Ovarian Cancer
Procedure: as §1

M14 = test: NCI60 five-dose screen; conditions: Homo sapiens; M14, Melanoma
Procedure: as §1

K-562 = test: NCI60 five-dose screen; conditions: Homo sapiens, K562; K-562, Leukemia
Procedure: as §1

PC-3 = test: NCI60 five-dose screen; conditions: Homo sapiens; PC-3, Prostate Cancer
Procedure: as §1

A498 = test: NCI60 five-dose screen; conditions: Homo sapiens; A498, Renal Cancer
Procedure: as §1

SK-OV-3 = test: NCI60 five-dose screen; conditions: Homo sapiens; SK-OV-3, Ovarian Cancer
Procedure: as §1

OVCAR-8 = test: NCI60 five-dose screen; conditions: Homo sapiens; OVCAR-8, Ovarian Cancer
Procedure: as §1

HCT-116 = test: NCI60 five-dose screen; conditions: Homo sapiens; HCT-116, Colon Cancer
Procedure: as §1

RPMI-8226 = test: NCI60 five-dose screen; conditions: Homo sapiens; RPMI-8226, Leukemia
Procedure: as §1

SF-295 = test: NCI60 five-dose screen; conditions: Homo sapiens; SF-295, CNS Cancer
Procedure: as §1

SK-MEL-28 = test: NCI60 five-dose screen; conditions: Homo sapiens; SK-MEL-28, Melanoma
Procedure: as §1

NCI-H322M = test: NCI60 five-dose screen; conditions: Homo sapiens, Non-small-Cell Lung Cancer
Procedure: as §1

NCI-H522 = test: NCI60 five-dose screen; conditions: Homo sapiens; NCI-H522, Non-small-Cell Lung Cancer
Procedure: as §1

HT29 = test: NCI60 five-dose screen; conditions: Homo sapiens, HT-29; HT29, Colon Cancer
Procedure: as §1

MCF7 = test: NCI60 five-dose screen; conditions: Homo sapiens; MCF7, Breast Cancer
Procedure: as §1

[1] = test system: 60 human cancer cell lines; test: NCI60 five-dose screen, overall mean; conditions: mean over all 60 cell lines
Procedure: as §1

## O=c1cc(-c2ccccc2)oc2cc(OCCCC[P+](C3CCCCC3)(C3CCCCC3)C3CCCCC3)cc(O)c12 [3e]
RXF 393
  GI50: 461 nM
HOP-92
  GI50: 211 nM
SF-268
  GI50: 1040 nM
OVCAR-4
  GI50: 686 nM
NCI-H226
  GI50: 1100 nM
SF-539
  GI50: 751 nM
IGROV1
  GI50: 774 nM
M14
  GI50: 515 nM
K-562
  GI50: 402 nM
PC-3
  GI50: 501 nM
A498
  GI50: 1690 nM
SK-OV-3
  GI50: 1470 nM
OVCAR-8
  GI50: 595 nM
HCT-116
  GI50: 882 nM
RPMI-8226
  GI50: 182 nM
SF-295
  GI50: 1400 nM
SK-MEL-28
  GI50: 423 nM
NCI-H322M
  GI50: 1580 nM
NCI-H522
  GI50: 457 nM
HT29
  GI50: 1770 nM
MCF7
  GI50: 956 nM
[1]
  GI50: 957 nM

## COc1c(C)cc([P+](CCCCOc2cc(O)c3c(=O)cc(-c4ccccc4)oc3c2)(c2cc(C)c(OC)c(C)c2)c2cc(C)c(OC)c(C)c2)cc1C [3f]
RXF 393
  GI50: 191 nM
HOP-92
  GI50: 165 nM
SF-268
  GI50: 525 nM
OVCAR-4
  GI50: 351 nM
NCI-H226
  GI50: 249 nM
SF-539
  GI50: 367 nM
IGROV1
  GI50: 346 nM
M14
  GI50: 329 nM
K-562
  GI50: 34 nM
PC-3
  GI50: 276 nM
A498
  GI50: 367 nM
SK-OV-3
  GI50: 263 nM
OVCAR-8
  GI50: 350 nM
HCT-116
  GI50: 256 nM
RPMI-8226
  GI50: 110 nM
SF-295
  GI50: 240 nM
SK-MEL-28
  GI50: 491 nM
NCI-H322M
  GI50: 432 nM
NCI-H522
  GI50: 221 nM
HT29
  GI50: 646 nM
MCF7
  GI50: 260 nM
[1]
  GI50: 312 nM

## Cc1ccccc1[P+](CCCCOc1cc(O)c2c(=O)cc(-c3ccccc3)oc2c1)(c1ccccc1C)c1ccccc1C [3g]
HOP-92
  GI50: 255 nM
SF-268
  GI50: 279 nM
OVCAR-4
  GI50: 429 nM
NCI-H226
  GI50: 399 nM
SF-539
  GI50: 187 nM
IGROV1
  GI50: 428 nM
M14
  GI50: 335 nM
K-562
  GI50: 279 nM
PC-3
  GI50: 308 nM
A498
  GI50: 462 nM
SK-OV-3
  GI50: 277 nM
OVCAR-8
  GI50: 560 nM
HCT-116
  GI50: 265 nM
RPMI-8226
  GI50: 135 nM
SF-295
  GI50: 648 nM
SK-MEL-28
  GI50: 323 nM
NCI-H322M
  GI50: 1380 nM
NCI-H522
  GI50: 341 nM
HT29
  GI50: 1220 nM
MCF7
  GI50: 267 nM
[1]
  GI50: 437 nM

## O=c1cc(-c2ccccc2)oc2cc(OCCCC[P+](c3ccccc3)(c3ccccc3)c3ccccn3)cc(O)c12 [3h]
RXF 393
  GI50: 608 nM
HOP-92
  GI50: 346 nM
SF-268
  GI50: 760 nM
OVCAR-4
  GI50: 1140 nM
NCI-H226
  GI50: 1560 nM
SF-539
  GI50: 1060 nM
IGROV1
  GI50: 653 nM
M14
  GI50: 564 nM
K-562
  GI50: 189 nM
PC-3
  GI50: 572 nM
A498
  GI50: 1730 nM
SK-OV-3
  GI50: 1520 nM
OVCAR-8
  GI50: 494 nM
HCT-116
  GI50: 650 nM
RPMI-8226
  GI50: 248 nM
SF-295
  GI50: 1360 nM
SK-MEL-28
  GI50: 570 nM
NCI-H322M
  GI50: 2040 nM
NCI-H522
  GI50: 320 nM
HT29
  GI50: 1750 nM
MCF7
  GI50: 396 nM
[1]
  GI50: 949 nM
